# Results reported in patent US20050026223A1, “Method and compositions for increasing bone mass” (The Board of Trustees of the University of Arkansas, priority 1999, published 2005).
# Legend:
# [1] = test system: extracellular signal regulated kinases (ERKs) 1 and 2; test: Western blot of phosphorylated ERK1/2 in MLO-Y4 osteocytic cells; format: cell-based, murine
# Method: (§1) MLO-Y4 osteocytic cells were incubated for 25 minutes in serum-free medium. […] Cell lysates were prepared and proteins were separated by electrophoresis in polyacrylamide gels and transferred to PVDF membranes. Western blotting was performed using a specific antibody recognizing phosphorylated ERKs 1 and 2, followed by reblotting with an antibody recognizing total ERKs. Blots were developed by enhanced chemiluminescence.
# as §1, with “MLO-Y4” for “MLO-Y4 osteocytic”, “medium in the presence or absence of 50 μM PD98059.” for “medium.”
# as §1, with “In this experiment, MLO-Y4” for “MLO-Y4”, “extracellular signal regulated kinases” for “ERKs”, “extracellular signal regulated kinases.” for “ERKs.”, “chemiluminescence. […] This effect is too rapid to be accounted for by the classical mechanism of estrogen action.” for “chemiluminescence.”
# as §1, with “In this experiment, MLO-Y4” for “MLO-Y4”, “medium in the presence or absence of 50 μM PD98059.” for “medium.”, “extracellular signal regulated kinases” for “ERKs”, “extracellular signal regulated kinases.” for “ERKs.”
# [2] = test system: HeLa cells transfected with estrogen receptor β (mERβ); test: Etoposide-induced apoptosis of HeLa cells stably transfected with mERβ; format: cell-based, human; details: compound 10^−8 M 1 h, etoposide 5×10^−5 M 6 hour
# Text: (§2) CMV promoter alone and CMV promoter-driven cDNA for mERα or mErβ were stably transfected into HeLa cells. […] Cells were trypsinized, pelleted and trypan blue positive cells enumerated.
# (§3) In this experiment, instead of calvaria cells, human HeLa cells which contain undetectable, if any, estrogen receptor were used. HeLa cells were stably transfected with either a CMV promoter-driven cDNA for the murine estrogen receptor-alpha (mERα) or a CMV promoter-driven cDNA for the murine estrogen receptor-beta (mERβ). […] Cells were trypsinized, pelleted and trypan blue positive cells were enumerated.
# wild type HeLa cells = test: Etoposide-induced apoptosis of wild type HeLa cells; format: cell-based, human; details: compound 10^−8 M 1 h, etoposide 5×10^−5 M 6 hour
# Text: CMV promoter alone and CMV promoter-driven cDNA for mERα or mErβ were stably transfected into HeLa cells. […] Cells were trypsinized, pelleted and trypan blue positive cells enumerated. Each bar represents mean of duplicate experiments ±SEM. *P<0.02 versus etoposide alone.
# as §3
# human ERα = molecular target: T1, human ERα (Homo sapiens, UniProt P03372); test: Estrogen response element luciferase reporter in 293 cells overexpressing hERα; format: cell-based; details: 3 copies ERE-luciferase
# T1 construct: expressed in transfected cells; host or cells: 293 (human embryonic kidney) cells
# T1 sequence (P03372 1-595): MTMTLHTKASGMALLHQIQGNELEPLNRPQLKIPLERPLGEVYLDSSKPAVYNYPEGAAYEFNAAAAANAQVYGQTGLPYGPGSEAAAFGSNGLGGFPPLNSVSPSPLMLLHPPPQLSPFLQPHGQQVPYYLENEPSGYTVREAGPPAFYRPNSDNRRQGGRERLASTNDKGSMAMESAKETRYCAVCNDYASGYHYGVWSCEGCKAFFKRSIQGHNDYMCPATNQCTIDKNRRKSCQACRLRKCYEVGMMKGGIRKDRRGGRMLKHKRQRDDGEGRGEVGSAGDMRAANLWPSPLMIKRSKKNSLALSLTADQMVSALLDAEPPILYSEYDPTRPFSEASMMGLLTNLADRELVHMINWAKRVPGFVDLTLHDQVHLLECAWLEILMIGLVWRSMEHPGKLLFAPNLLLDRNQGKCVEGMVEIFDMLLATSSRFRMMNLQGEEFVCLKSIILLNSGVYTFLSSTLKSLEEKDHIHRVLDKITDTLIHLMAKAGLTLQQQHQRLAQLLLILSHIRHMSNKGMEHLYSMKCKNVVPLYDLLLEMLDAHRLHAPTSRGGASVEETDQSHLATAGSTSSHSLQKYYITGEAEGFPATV
# Text: The human ERα was overexpressed in 293 cells lacking ERα along with a reporter construct containing 3 copies of an estrogen response element driving the luciferase gene. Light units were counted and normalized to coexpressed b-galactosidase activity to control for differences in transfection efficiency. Results represent percent stimulation compared to ERα transfected cells, but not treated with the two agents. Each bar represents mean of duplicate experiments +/−SEM. *p<0.001 vs. cells not exposed to the sterols.
# In this experiment, hERα was overexpressed in 293 cells (which lack constitutive ERα) along with a reporter construct containing 3 copies of an estrogen response element driving the luciferase gene. Light units were counted and normalized to coexpressed β-galactosidase activity to control for differences in transfection efficiency.
# [3] = test system: HeLa cells transfected with the estrogen receptor α (mERα); test: Etoposide-induced apoptosis of HeLa cells stably transfected with mERα; format: cell-based, human; details: compound 10^−8 M 1 h, etoposide 5×10^−5 M 6 hour
# Text: as §2, §3
compound,measurement,setting,value
C[C@@]12CCC[C@H]1[C@@H]1CCc3cc(O)ccc3[C@H]1CC2 [estratriene-3-ol],Activation of ERKs (phosphorylated fraction of ERK1/2),"[1]; 10^−8 M, 5, 15 or 30 minutes",activated
same,Ability to activate ERKs in the presence of PD98059,"[1]; compound 10^−8 M, 5 minutes, 50 μM PD98059",abrogated
same,Effect on etoposide-induced apoptosis,[2],potently inhibited
same,Effect on etoposide-induced apoptosis,wild type HeLa cells,none of the three compounds had any effect
same,Transactivation of an estrogen response element through the estrogen receptor α,human ERα,did not transactivate
same,Effect on etoposide-induced apoptosis,[3],potently inhibited
